Assay results as given in article PMC8800111 (The Journal of Biological Chemistry, 2021).

Legend:
Type in all cases: cell-based
[1] = target: proteins of U3A human fibrosarcoma cells (4462 proteins detected) (Homo sapiens, UniProt P08582); conditions: protein MFI2; U3A cells
[2] = target: proteins of U3A human fibrosarcoma cells (4462 proteins detected) (Homo sapiens, UniProt P41214); conditions: protein EIF2D; U3A cells
[3] = target: proteins of U3A human fibrosarcoma cells (4462 proteins detected) (Homo sapiens, UniProt Q96EY8); conditions: protein MMAB; U3A cells
[4] = target: proteins of U3A human fibrosarcoma cells (4462 proteins detected) (Homo sapiens, UniProt Q9UBV8); conditions: protein PEF1; U3A, 10 μM, 2 h
[5] = target: proteins of U3A human fibrosarcoma cells (4462 proteins detected) (Homo sapiens, UniProt Q9UKX7); conditions: protein NUP50; soluble abundance after heat, U3A cells
[6] = target: proteins of U3A human fibrosarcoma cells (4462 proteins detected) (Homo sapiens, UniProt O60684); conditions: protein KPNA6; U3A cells
[7] = target: proteins of U3A human fibrosarcoma cells (4462 proteins detected) (Homo sapiens, UniProt Q16658); conditions: protein FSCN1, U3A cells
[8] = target: proteins of U3A human fibrosarcoma cells (4462 proteins detected) (Homo sapiens, UniProt Q9Y237); conditions: protein PIN4, U3A cells
[9] = target: proteins of U3A human fibrosarcoma cells (4462 proteins detected) (Homo sapiens, UniProt Q9H7Z7); conditions: protein PTGES2, U3A cells
[10] = target: proteins of U3A human fibrosarcoma cells (4462 proteins detected) (Homo sapiens, UniProt Q9NWH9); conditions: protein SLTM; soluble abundance after heat, U3A cells
[11] = target: proteins of U3A human fibrosarcoma cells (4462 proteins detected) (Homo sapiens, UniProt P38919); conditions: protein EIF4A3; soluble abundance after heat, U3A cells
[12] = target: proteins of U3A human fibrosarcoma cells (4462 proteins detected) (Homo sapiens, UniProt Q96BP2); conditions: protein CHCHD1; soluble abundance after heat, U3A cells
[13] = target: proteins of U3A human fibrosarcoma cells (4462 proteins detected) (Homo sapiens, UniProt Q9P2E9); conditions: protein RRBP1; soluble abundance after heat, U3A cells
[14] = target: proteins of U3A human fibrosarcoma cells (4462 proteins detected) (Homo sapiens, UniProt P07910); conditions: protein HNRNPC; U3A, 10 μM, 2 h
[15] = target: proteins of U3A human fibrosarcoma cells (4462 proteins detected) (Homo sapiens, UniProt Q96EQ0); conditions: protein SGTB, U3A cells
[16] = target: proteins of U3A human fibrosarcoma cells (4462 proteins detected) (Homo sapiens, UniProt P17987); conditions: protein TCP1; U3A cells
[17] = target: proteins of U3A human fibrosarcoma cells (4462 proteins detected) (Homo sapiens, UniProt Q9P2K3); conditions: protein RCOR3; U3A cells
[18] = target: proteins of U3A human fibrosarcoma cells (4462 proteins detected) (Homo sapiens, UniProt P21283); conditions: protein ATP6V1C1; soluble abundance after heat, U3A cells
[19] = target: proteins of U3A human fibrosarcoma cells (4462 proteins detected) (Homo sapiens, UniProt Q14353); conditions: protein GAMT; U3A, 10 μM, 2 h
[20] = target: proteins of U3A human fibrosarcoma cells (4462 proteins detected) (Homo sapiens, UniProt Q13185); conditions: protein CBX3, U3A cells
[21] = target: proteins of U3A human fibrosarcoma cells (4462 proteins detected) (Homo sapiens, UniProt Q5SZL2); conditions: protein CEP85L; U3A, 10 μM, 2 h
[22] = target: proteins of U3A human fibrosarcoma cells (4462 proteins detected) (Homo sapiens, UniProt Q8IVL6); conditions: protein LEPREL2; soluble abundance after heat, U3A cells
[23] = target: proteins of U3A human fibrosarcoma cells (4462 proteins detected) (Homo sapiens, UniProt P00568); conditions: protein AK1, U3A cells
[24] = target: proteins of U3A human fibrosarcoma cells (4462 proteins detected) (Homo sapiens, UniProt O75351); conditions: protein VPS4B; soluble abundance after heat, U3A cells
[25] = target: proteins of U3A human fibrosarcoma cells (4462 proteins detected) (Homo sapiens, UniProt Q5HYK7); conditions: protein SH3D19; U3A, 10 μM, 2 h
[26] = target: proteins of U3A human fibrosarcoma cells (4462 proteins detected) (Homo sapiens, UniProt P62701); conditions: protein RPS4X; soluble abundance after heat, U3A cells
[27] = target: proteins of U3A human fibrosarcoma cells (4462 proteins detected) (Homo sapiens, UniProt Q8IZL8); conditions: protein PELP1; U3A cells
[28] = target: proteins of U3A human fibrosarcoma cells (4462 proteins detected) (Homo sapiens, UniProt P04183); conditions: protein TK1; U3A cells
[29] = target: proteins of U3A human fibrosarcoma cells (4462 proteins detected) (Homo sapiens, UniProt Q8N5G2); conditions: protein TMEM57; U3A cells

Chain of proteins of U3A human fibrosarcoma cells (4462 proteins detected) (Homo sapiens, UniProt Q5HYK7) (Q5HYK7 whole entry): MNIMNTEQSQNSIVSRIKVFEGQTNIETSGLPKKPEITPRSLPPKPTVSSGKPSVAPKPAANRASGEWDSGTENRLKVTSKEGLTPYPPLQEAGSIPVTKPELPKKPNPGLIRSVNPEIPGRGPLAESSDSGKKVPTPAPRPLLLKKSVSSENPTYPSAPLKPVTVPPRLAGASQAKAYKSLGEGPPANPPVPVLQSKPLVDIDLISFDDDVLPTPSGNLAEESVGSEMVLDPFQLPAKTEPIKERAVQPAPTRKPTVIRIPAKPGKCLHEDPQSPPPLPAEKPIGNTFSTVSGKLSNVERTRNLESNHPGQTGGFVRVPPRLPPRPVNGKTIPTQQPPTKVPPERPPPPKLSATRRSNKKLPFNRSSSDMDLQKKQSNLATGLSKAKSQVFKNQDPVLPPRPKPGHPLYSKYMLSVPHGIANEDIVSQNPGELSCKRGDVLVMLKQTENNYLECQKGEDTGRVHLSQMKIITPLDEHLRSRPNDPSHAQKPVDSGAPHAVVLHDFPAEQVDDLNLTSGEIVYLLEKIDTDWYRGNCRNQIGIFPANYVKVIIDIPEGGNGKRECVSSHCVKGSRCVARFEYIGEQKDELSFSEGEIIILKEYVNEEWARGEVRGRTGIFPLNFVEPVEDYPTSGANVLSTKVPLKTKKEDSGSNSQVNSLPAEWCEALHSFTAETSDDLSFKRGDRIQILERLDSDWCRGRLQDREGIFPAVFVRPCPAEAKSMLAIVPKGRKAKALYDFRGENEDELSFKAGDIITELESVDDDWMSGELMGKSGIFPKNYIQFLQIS
Chain of proteins of U3A human fibrosarcoma cells (4462 proteins detected) (Homo sapiens, UniProt Q9UBV8) (Q9UBV8 whole entry): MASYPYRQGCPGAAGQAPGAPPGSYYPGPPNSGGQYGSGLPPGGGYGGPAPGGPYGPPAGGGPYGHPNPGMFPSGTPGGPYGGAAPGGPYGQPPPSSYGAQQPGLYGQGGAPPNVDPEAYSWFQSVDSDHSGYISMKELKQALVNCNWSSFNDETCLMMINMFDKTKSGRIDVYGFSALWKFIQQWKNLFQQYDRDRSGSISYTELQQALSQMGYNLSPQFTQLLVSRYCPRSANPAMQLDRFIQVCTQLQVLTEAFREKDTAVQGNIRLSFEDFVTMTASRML
Chain of proteins of U3A human fibrosarcoma cells (4462 proteins detected) (Homo sapiens, UniProt P07910) (P07910 whole entry): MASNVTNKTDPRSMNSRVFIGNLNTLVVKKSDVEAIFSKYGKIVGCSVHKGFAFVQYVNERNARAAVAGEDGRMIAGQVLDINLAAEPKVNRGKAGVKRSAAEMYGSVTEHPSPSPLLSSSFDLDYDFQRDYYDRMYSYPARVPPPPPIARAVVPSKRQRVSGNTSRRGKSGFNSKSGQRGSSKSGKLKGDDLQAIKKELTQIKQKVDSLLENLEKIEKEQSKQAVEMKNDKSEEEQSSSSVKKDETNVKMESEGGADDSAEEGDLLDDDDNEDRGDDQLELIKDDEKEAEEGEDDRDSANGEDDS
Chain of proteins of U3A human fibrosarcoma cells (4462 proteins detected) (Homo sapiens, UniProt Q8IVL6) (Q8IVL6 21-736): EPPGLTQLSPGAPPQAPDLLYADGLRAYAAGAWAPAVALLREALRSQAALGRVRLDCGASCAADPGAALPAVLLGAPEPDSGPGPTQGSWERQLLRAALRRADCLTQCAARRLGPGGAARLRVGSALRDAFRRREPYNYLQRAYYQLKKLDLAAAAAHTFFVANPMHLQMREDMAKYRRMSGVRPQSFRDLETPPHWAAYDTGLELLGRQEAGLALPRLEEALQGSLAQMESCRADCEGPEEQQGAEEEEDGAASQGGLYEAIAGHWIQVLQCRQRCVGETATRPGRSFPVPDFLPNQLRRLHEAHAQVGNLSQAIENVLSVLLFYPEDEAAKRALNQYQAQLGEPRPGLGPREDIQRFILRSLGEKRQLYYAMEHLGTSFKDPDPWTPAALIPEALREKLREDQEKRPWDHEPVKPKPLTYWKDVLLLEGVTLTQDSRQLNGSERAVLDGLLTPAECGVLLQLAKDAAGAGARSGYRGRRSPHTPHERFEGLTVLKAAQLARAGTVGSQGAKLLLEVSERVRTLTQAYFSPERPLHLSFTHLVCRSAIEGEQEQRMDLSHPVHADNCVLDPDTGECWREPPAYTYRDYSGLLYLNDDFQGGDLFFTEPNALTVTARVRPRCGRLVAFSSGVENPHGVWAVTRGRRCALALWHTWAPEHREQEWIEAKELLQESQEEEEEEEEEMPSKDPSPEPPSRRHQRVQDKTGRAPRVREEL
Chain of proteins of U3A human fibrosarcoma cells (4462 proteins detected) (Homo sapiens, UniProt P21283) (P21283 whole entry): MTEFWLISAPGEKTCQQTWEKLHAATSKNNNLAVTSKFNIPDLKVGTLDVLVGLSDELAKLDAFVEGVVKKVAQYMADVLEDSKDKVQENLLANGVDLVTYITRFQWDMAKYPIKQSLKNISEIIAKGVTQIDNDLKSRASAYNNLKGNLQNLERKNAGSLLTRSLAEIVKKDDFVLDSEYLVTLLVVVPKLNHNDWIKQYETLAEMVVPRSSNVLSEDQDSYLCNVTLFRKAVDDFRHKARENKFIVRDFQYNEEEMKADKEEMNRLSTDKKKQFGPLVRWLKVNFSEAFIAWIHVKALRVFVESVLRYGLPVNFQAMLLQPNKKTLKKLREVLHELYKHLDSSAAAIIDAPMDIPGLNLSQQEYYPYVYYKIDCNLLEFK
Chain of proteins of U3A human fibrosarcoma cells (4462 proteins detected) (Homo sapiens, UniProt Q9UKX7) (Q9UKX7 whole entry): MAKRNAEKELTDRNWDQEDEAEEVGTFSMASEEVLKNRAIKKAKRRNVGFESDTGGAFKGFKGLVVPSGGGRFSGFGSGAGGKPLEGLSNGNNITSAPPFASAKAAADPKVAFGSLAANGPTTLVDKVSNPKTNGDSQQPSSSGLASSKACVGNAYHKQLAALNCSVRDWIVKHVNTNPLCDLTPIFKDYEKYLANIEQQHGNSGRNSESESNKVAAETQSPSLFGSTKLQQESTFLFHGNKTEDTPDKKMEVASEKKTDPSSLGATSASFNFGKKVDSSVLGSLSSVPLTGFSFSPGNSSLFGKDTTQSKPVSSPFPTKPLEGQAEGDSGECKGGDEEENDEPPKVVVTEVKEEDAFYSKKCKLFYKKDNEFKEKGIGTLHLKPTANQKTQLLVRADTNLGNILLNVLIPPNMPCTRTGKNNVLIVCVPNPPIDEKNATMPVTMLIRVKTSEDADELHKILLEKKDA
Chain of proteins of U3A human fibrosarcoma cells (4462 proteins detected) (Homo sapiens, UniProt P41214) (P41214 whole entry): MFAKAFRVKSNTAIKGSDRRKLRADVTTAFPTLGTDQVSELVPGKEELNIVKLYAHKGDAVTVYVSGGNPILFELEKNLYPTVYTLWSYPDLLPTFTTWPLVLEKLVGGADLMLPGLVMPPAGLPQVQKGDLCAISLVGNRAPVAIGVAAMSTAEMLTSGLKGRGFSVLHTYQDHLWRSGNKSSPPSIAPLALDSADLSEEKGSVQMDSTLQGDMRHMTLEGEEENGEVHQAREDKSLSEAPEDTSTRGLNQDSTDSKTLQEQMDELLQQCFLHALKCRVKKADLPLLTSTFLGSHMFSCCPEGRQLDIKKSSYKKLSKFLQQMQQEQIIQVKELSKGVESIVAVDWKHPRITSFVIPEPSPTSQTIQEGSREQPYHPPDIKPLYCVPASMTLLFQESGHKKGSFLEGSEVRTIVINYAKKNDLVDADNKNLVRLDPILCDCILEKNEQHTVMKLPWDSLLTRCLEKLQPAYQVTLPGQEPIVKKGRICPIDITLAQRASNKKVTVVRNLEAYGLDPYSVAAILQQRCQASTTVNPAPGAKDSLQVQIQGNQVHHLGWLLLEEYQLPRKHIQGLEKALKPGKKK
Chain of proteins of U3A human fibrosarcoma cells (4462 proteins detected) (Homo sapiens, UniProt Q9Y237) (Q9Y237 whole entry): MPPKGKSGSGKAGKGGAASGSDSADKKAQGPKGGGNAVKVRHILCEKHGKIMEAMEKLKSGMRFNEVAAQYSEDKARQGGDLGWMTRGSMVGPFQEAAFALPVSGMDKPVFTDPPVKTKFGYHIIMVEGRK
Chain of proteins of U3A human fibrosarcoma cells (4462 proteins detected) (Homo sapiens, UniProt P04183) (P04183 whole entry): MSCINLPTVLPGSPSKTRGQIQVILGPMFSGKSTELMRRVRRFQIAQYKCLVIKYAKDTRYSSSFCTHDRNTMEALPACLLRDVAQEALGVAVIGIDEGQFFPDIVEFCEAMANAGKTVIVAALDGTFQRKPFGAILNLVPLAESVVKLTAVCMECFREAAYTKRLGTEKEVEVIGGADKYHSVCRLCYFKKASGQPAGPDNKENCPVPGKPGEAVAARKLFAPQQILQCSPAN
Chain of proteins of U3A human fibrosarcoma cells (4462 proteins detected) (Homo sapiens, UniProt P38919) (P38919 whole entry): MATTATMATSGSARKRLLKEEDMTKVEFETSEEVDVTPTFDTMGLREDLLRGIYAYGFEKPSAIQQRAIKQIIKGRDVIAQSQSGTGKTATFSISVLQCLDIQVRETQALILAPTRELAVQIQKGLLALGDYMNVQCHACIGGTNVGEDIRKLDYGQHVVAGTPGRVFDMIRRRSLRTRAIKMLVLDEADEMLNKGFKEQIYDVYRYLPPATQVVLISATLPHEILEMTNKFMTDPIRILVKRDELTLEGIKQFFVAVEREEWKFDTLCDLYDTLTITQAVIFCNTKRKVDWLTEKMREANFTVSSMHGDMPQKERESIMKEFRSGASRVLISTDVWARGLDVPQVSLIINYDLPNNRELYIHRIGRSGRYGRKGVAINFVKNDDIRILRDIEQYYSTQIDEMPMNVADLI
Chain of proteins of U3A human fibrosarcoma cells (4462 proteins detected) (Homo sapiens, UniProt O75351) (O75351 whole entry): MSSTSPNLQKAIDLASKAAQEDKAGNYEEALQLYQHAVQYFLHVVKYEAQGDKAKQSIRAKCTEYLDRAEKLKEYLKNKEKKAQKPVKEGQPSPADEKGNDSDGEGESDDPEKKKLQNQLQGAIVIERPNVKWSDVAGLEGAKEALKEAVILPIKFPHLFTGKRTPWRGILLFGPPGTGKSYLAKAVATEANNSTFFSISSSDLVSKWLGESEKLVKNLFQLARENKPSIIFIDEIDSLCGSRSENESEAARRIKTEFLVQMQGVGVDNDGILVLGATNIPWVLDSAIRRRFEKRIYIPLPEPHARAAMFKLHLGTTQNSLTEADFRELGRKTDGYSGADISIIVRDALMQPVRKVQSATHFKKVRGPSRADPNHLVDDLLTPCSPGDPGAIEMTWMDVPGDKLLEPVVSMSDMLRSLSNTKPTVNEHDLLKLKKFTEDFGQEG
Chain of proteins of U3A human fibrosarcoma cells (4462 proteins detected) (Homo sapiens, UniProt Q13185) (Q13185 whole entry): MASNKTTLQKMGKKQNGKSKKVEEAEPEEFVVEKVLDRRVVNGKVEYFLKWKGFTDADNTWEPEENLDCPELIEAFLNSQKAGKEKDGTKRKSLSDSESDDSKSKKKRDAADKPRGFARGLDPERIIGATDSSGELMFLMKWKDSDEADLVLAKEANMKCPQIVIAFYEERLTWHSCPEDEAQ

In the case of `CCc1nc(N)nc(N)c1-c1ccc(Cl)cc1` [pyrimethamine], the “Log2 (PYR/DMSO)” value [1] is reported as 0.18, the “Log2 (PYR/DMSO)” value [2] is reported as 0.22 and the “Log2 (PYR/DMSO)” value [3] is reported as 0.19. The “Log2 (PYR/DMSO), PEF1” value [4] was 0.24, the “Log2 (PYR/DMSO)” value [5] was 0.15 and the “Log2 (PYR/DMSO)” value [6] was 0.24. For the same molecule, the “Log2 (PYR/DMSO)” value [7] was -0.04, the “Log2 (PYR/DMSO)” value [8] was -0.05 and the “Log2 (PYR/DMSO)” value [9] was -0.04. For the same molecule, the “Log2 (PYR/DMSO)” value [10] was 0.15, the “Log2 (PYR/DMSO)” value [11] was 0.15 and the “Log2 (PYR/DMSO)” value [12] was 0.15. The “Log2 (PYR/DMSO)” value [13] was 0.15, the “Log2 (PYR/DMSO), HNRNPC” value [14] was 0.27 and the “Log2 (PYR/DMSO)” value [15] was -0.04. The “Log2 (PYR/DMSO)” value [16] was 0.21, the “Log2 (PYR/DMSO)” value [17] was 0.21 and the “Log2 (PYR/DMSO)” value [18] was 0.13. The “Log2 (PYR/DMSO), GAMT” value [19] was -0.27, the “Log2 (PYR/DMSO)” value [20] was -0.05 and the “Log2 (PYR/DMSO), CEP85L” value [21] was -0.24. For the same molecule, the “Log2 (PYR/DMSO)” value [22] was 0.14, the “Log2 (PYR/DMSO)” value [23] was -0.04 and the “Log2 (PYR/DMSO)” value [24] was 0.14. The “Log2 (PYR/DMSO), SH3D19” value [25] was -0.14, the “Log2 (PYR/DMSO)” value [26] was 0.14 and the “Log2 (PYR/DMSO)” value [27] was 0.16. The “Log2 (PYR/DMSO)” value [28] was 0.19 and the “Log2 (PYR/DMSO)” value [29] was 0.17.
